# Target: T1, Induced myeloid leukemia cell differentiation protein Mcl-1 [171-327] (Homo sapiens, UniProt Q07820)
# T1 construct: 171-327
# Experiment: TR-FRET Binding A
# Conditions: pH 7.4; 24 °C
# Procedure: Compound IC50 values were assessed following a 10-point, half-log10 dilution schema starting at 10 uM compound concentration. The assay was performed in 384-well LV plates (Matrix 4365, Thermo Scientific) and run in the presence and absence of the compound of interest. Each well of 12 uL assay mixture contained 10 mM Tris (pH 7.4), 1 mM DTT, 0.005% Tween-20, 150 mM NaCl, 10% DMSO, 3 nM GST-Mcl-1, 1 nM LanthaScreen Eu-tagged GST antibody (#PV5594, Invitrogen, Life Technologies), and 8 nM fluorescently labeled peptide. Reactions were incubated at 24 °C for 60 min before reading on a Tecan F500 spectrofluorometer with excitation at 340 nm and emission at 620 nm and 665 nm. Subsequently, the ratio of fluorescence emission intensity at 665 nm to 620 nm was calculated for each reaction, and the dose response of the ratio to testing compound concentration was fitted to a select fit model that will provide the best fit quality using automatic parameters to derive IC50 values for each testing compound.
# T1 sequence (Q07820 171-327): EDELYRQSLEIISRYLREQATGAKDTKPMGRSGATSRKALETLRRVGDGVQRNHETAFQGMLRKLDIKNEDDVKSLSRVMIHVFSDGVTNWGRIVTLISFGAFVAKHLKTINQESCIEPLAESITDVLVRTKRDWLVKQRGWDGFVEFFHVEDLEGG
IC50,Ki,SMILES
4.2 nM,1.2 nM,"Cc1c(-c2cccc3c(CCCOc4cccc5ccccc45)c(C(=O)O)n(C)c23)c(COc2ccc(B(O)O)c(C=O)c2)nn1C [7-(3-((4-Borono-3-formylphenoxy)methyl)-1,5-dimethyl-1Hpyrazol-4-yl)-1-methyl-3-(3-(naphthalen-1-yloxy)propyl)-1H-indole-2-carboxylic acid, 11]"
3.4 nM,0.9 nM,"Cc1c(-c2cccc3c(CCCOc4cccc5ccccc45)c(C(=O)O)[nH]c23)c(COc2ccc(B(O)O)c(C=O)c2)nn1C [7-(3-((4-Borono-3-formylphenoxy)methyl)-1,5-dimethyl-1Hpyrazol-4-yl)-3-(3-(naphthalen-1-yloxy)propyl)-1H-indole-2-carboxylic acid, 5]"

# Second part, the compound before the results:
SMILES,IC50,Ki
"CC(=O)c1cc(OCc2nn(C)c(C)c2-c2cccc3c(CCCOc4cccc5ccccc45)c(C(=O)O)[nH]c23)ccc1B(O)O [7-(3-((3-Acetyl-4-boronophenoxy)methyl)-1,5-dimethyl-1H-pyrazol-4-yl)-3-(3-(naphthalen-1-yloxy)propyl)-1H-indole-2-carboxylic acid, 6]",4.7 nM,1.2 nM
"CC(=O)c1cccc(OCc2nn(C)c(C)c2-c2cccc3c(CCCOc4cccc5ccccc45)c(C(=O)O)[nH]c23)c1 [7-(3-((3-Acetylphenoxy)methyl)-1,5-dimethyl-1H-pyrazol-4-yl)-3-(3-(naphthalen-1-yloxy)propyl)-1H-indole-2-carboxylic acid, 8]",237 nM,64 nM
"Cc1c(-c2cccc3c(CCCOc4cccc5ccccc45)c(C(=O)O)[nH]c23)c(COc2cccc(C=O)c2)nn1C [7-(3-((3-formylphenoxy)methyl)-1,5-dimethyl-1H-pyrazol-4-yl)-3-(3-(naphthalen-1-yloxy)propyl)-1H-indole-2-carboxylic acid, 7]",59.5 nM,16 nM
Cc1c(-c2cccc3c(CCCOc4cccc5ccccc45)c(C(=O)O)[nH]c23)c(COc2ccccc2)nn1C [Mcl-1 inhibitor 10],383 nM,104 nM
CCc1nn(C)c(CC)c1-c1cccc2c(CCCOc3cccc4ccccc34)c(C(=O)O)n(CCN3CCOCC3)c12 [Mcl-1 inhibitor 12],5.96 nM,1.6 nM
